# Target: T1, POLγA:R309C (Homo sapiens, UniProt P54098, R309C)
# T1 sequence (P54098 1-1239 R309C): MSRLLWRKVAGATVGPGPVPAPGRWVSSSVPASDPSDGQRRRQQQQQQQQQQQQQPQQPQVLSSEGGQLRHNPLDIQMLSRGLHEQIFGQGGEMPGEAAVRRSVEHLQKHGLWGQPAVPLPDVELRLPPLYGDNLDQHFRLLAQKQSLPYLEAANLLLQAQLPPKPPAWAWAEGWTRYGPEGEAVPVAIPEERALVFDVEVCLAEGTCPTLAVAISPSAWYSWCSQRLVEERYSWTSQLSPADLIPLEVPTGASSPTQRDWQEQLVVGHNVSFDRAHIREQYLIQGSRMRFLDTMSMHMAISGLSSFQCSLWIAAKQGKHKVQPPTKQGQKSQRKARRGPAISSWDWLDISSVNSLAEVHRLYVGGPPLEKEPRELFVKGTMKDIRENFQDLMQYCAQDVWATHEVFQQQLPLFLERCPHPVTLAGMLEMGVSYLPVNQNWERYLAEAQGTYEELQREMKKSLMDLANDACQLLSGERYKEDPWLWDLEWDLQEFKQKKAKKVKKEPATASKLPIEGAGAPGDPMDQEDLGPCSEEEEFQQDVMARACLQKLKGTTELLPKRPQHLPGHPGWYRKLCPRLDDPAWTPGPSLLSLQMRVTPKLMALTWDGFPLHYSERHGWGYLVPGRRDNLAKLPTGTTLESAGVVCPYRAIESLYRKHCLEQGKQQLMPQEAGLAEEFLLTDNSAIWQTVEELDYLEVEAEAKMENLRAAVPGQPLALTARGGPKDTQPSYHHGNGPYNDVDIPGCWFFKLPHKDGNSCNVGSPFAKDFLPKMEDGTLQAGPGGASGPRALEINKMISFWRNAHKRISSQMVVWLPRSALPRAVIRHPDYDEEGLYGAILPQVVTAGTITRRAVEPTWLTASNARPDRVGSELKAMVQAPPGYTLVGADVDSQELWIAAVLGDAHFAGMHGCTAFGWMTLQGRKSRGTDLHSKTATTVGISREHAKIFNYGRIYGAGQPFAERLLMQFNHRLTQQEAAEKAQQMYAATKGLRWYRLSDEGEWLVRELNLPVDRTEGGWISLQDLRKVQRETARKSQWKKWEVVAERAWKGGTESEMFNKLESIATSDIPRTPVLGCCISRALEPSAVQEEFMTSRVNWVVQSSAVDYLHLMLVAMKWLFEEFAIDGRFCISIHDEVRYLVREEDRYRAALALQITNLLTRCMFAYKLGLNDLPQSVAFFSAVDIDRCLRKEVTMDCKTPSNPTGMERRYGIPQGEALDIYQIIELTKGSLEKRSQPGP
# T1 sequence (Q9UHN1 1-485 partner): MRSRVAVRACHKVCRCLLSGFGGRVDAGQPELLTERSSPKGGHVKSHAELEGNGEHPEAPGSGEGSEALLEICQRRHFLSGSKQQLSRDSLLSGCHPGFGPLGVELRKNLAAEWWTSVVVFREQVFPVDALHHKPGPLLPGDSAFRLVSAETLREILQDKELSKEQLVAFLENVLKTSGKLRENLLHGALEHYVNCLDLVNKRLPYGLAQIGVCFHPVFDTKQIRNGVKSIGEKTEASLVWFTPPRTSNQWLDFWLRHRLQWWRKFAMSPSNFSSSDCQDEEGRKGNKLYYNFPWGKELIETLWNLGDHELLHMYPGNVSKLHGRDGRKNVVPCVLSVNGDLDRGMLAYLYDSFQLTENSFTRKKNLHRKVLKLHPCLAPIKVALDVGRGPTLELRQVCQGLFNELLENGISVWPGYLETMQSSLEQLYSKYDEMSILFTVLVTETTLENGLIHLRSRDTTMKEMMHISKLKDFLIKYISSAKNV
# Assay: DNA polymerization assay, POLγA:R309C mutant
# Assay type: biochemical
# Settings: stimulation of polymerase activity, primed M13mp18 ssDNA, 37° C. 2 hours
# Method: DNA Polymerization Assay to Monitor Effects on Human Wildtype POLγ and Four Disease-Causing Mutant Variants of Human POLγ.
# The ability of small molecules to stimulate the polymerase activity of POLγ was analyzed in a quantitative fluorescence SYBR Green I assay with fluorescence intensity (FI) readout.
# In the presence of dNTPs, wild type human POLγ and mutant derivatives thereof were incubated with single-stranded, circular M13mp18 ssDNA hybridized to a short DNA oligonucleotide that functions as a primer for initiation of DNA synthesis. POLγ and mutant derivatives thereof will extend the primer and use the M13mp18 molecule as a template to synthesize long stretches of double-stranded DNA. SYBR Green I, which is a double-stranded DNA-binding dye, was used to quantify formation of double-stranded DNA in the reaction. When bound to double-stranded DNA, SYBR Green I fluorescence increases by up to 100-fold.
# The assay was performed in the 384-well plate format. Upon addition of compounds, changes in double-stranded DNA synthesis activity can be monitored by following effects on fluorescent intensity.
# The reactions also contained the accessory POLγB subunit, and the human mitochondrial single-stranded DNA binding protein (mtSSB).
# The DNA template mixture used in the assay contained 0.5 nM primed M13 mp18 ssDNA, 400 nM mtSSB, 0.1 mM Tris-HCl (pH 8.0), 0.1 mM dNTP, 10 mM MgCl2, 0.1 mg/mL BSA, 1 mM TCEP solution, and 0.02% Triton X-100. The DNA template mixture for the wild type protein contained either 100 μM dNTP, 1 μM dNTP, or 0.1 μM dNTP, designated in Table 2 as 100 μM, 1 μM, and 0.1 μM, respectfully.
# Microplates with compounds (0.1 μL in each well) to be tested in the assay were prepared from 10 mM compound stocks in 100% DMSO, and equal amounts of DMSO without any compound were added to positive and negative control wells.
# The protein mixture was dispensed (5 μL into each well) into compound plates and incubated at 37° C. for 15 minutes. After incubation, 5 μL of the DNA template mixture was dispensed into each well. The plates were then incubated at 37° C. for 2 hours.
# During incubation, a combined stop buffer and detection reagent solution was prepared. The buffer contained 25 mM EDTA (pH 8.0), 0.02% Triton X-100, and SYBR Green I [Invitrogen] diluted 10,000× (for fluorescent readout). EDTA will stop the enzymatic reaction by chelating magnesium ions.
row,Structure (SMILES),AC50
1,"Cc1cc(S(=O)(=O)Nc2cccc(-c3cc(C4CC4)[nH]n3)c2)c(C)cc1Cl [Example 64, 4-chloro-N-(3-(5-cyclopropyl-1H-pyrazol-3-yl)phenyl)-2,5-dimethylbenzenesulfonamide]",1 µM
2,"Cc1cc(S(=O)(=O)Nc2cccc(-c3cc[nH]n3)c2)c(C)cc1Cl [Example 68, N-(3-(1H-pyrazol-3-yl)phenyl)-4-chloro-2,5-dimethylbenzenesulfonamide]",7 µM
3,"Cc1csc(-c2cccc(NS(=O)(=O)c3cc(C)c(Cl)cc3C)c2)n1 [Example 20, 4-chloro-2,5-dimethyl-N-(3-(4-methylthiazol-2-yl)phenyl)benzenesulfonamide]",1 µM
4,Cc1ccc(C)c(S(=O)(=O)Nc2cccc(-c3nccs3)c2)c1 [Example 60],0.9 µM
5,"Cc1cnc(-c2cccc(NS(=O)(=O)c3cc(C)c(Cl)cc3C)c2)s1 [Example 21, 4-chloro-2,5-dimethyl-N-(3-(5-methylthiazol-2-yl)phenyl)benzenesulfonamide]",1 µM
6,"CC[C@@H]1CCCN1C(=O)c1cccc(NS(=O)(=O)c2cc(C)c(Cl)cc2C)c1 [Example 65, (R)-4-chloro-N-(3-(2-ethylpyrrolidine-1-carbonyl)phenyl)-2,5-dimethylbenzenesulfonamide]",5 µM

# Further lines, results first:
row,AC50,Structure (SMILES)
1,1 µM,"Cc1cc(S(=O)(=O)Nc2ccc3ccn(C(C)C)c3c2)c(C)cc1Cl [Example 69, 4-chloro-N-(1-isopropyl-1H-indol-6-yl)-2,5-dimethylbenzenesulfonamide]"
2,12 µM,"Cc1cc(-c2cccc(NS(=O)(=O)c3cc(C)c(Cl)cc3C)c2)n[nH]1 [Example 66, 4-chloro-2,5-dimethyl-N-(3-(5-methyl-1H-pyrazol-3-yl)phenyl)benzenesulfonamide]"
3,51 µM,"Cc1nc2ccc(NS(=O)(=O)c3cc(C)c(Cl)cc3C)cc2o1 [Example 70, 4-chloro-2,5-dimethyl-N-(2-methylbenzo[d]oxazol-6-yl)benzenesulfonamide]"
4,8 µM,"Cc1cc2cc(NS(=O)(=O)c3cc(C)c(Cl)cc3C)ccc2[nH]1 [Example 184, 4-chloro-2,5-dimethyl-N-(2-methyl-1H-indol-5-yl)benzenesulfonamide]"
